Results from PMC6760105, “Construction of a novel quinoxaline as a new class of Nrf2 activator” (BMC Chemistry, 2019).

Key:
Nrf2-Keap1 interaction = target: T1, Nrf2-Keap1 interaction (Homo sapiens, UniProt Q14145); assay: Keap1:Nrf2 Inhibitor Screening Assay Kit (Nrf2 activation assay); assay type: binding; details: fluorescence λex 485 nm, λem 530 nm; 100 µM to 1 nM; read-out: IC50, inhibition of Nrf2-Keap1 interaction
T1 construct: purchased BPS Bioscience, USA
Method: The Nrf2 activation by NQC was determined using ‘Keap1:Nrf2 Inhibitor Screening Assay Kit’ (BPS Bioscience, USA) following the instructions in product insert. The NQC was dissolved in DMSO and diluted with assay buffer provided in the kit to produce the concentrations range, 100 µM to 1 nM. The fluorescence of the solutions in each well of 96-well plate was measured at λex 485 nm and λem 530 nm. The dose–response curve was constructed plotting percent reduction in Kepa1-Nrf2 binding activity versus log concentration of NQC. From dose–response curve IC50 value was calculated.

RAW 264.7 cells [1] = assay: IL-1β production, ELISA, LPSEc stimulated cells; assay type: cell-based; details: Mus musculus, RAW264.7, LPSEc (1 µg/mL) stimulated RAW 264.7 cells
Method: (§1) Murine macrophages, cell line: RAW 264.7 was procured from ATCC, USA. The macrophage cells were grown and cultured in Dulbecco’s Modified Eagle Medium (DMEM) supplemented with 10% Fetal Bovine serum (FBS) and 1% PenStrep and incubated in a 5% CO2 at 37 °C incubator. Cells from passages 10 to 20 were used for subsequent experiments.
(§2) Production of IL-1β, IL-6, PGE2− and TNF-α in RAW 264.7 cells were quantitatively measured using an enzyme-linked immunosorbent assay (ELISA). The cells were incubated with 0.1% DMSO or NQC for 4 h, then stimulated with LPSEc, 1 µg/mL, for 20 h. The production of pro-inflammatory cytokines (IL-1β, IL-6) and TNF-α were determined using commercial ELISA kit (RayBio) according to the manufacturer’s instructions in product insert. The absorbance was measured at 540 nm. All the experiments were performed in triplicate.

RAW 264.7 cells [2] = assay: IL-6 production, ELISA, LPSEc stimulated cells; assay type: cell-based; details: Mus musculus, RAW264.7, LPSEc (1 µg/mL) stimulated RAW 264.7 cells
Method: as §1, §2

[3] = Microsomal metabolic stability, mouse liver microsomes; assay type: in vitro ADME; details: NQC 1 µM
Method: (§3) A stock solution (SS) of NQC at 1 mM was prepared using 100% dimethyl sulfoxide. Working solution of 10 μM was further prepared by dilution of SS with 25% ACN and 50 mM tris–HCl buffer (pH 7.4). In a 96-well plate, NQC (effective concentration:1 µM) was incubated with phosphate buffer (pH7.4) and 0.5 mg/mL of liver microsomes (human, rat and mouse) at 37 °C in an incubation. Each NQC incubation with liver microsomes was performed in triplicates. The microsomal metabolic reaction was initiated by the addition of co-factor, NADPH (5 mM). Samples following the allotted time-point was drawn and quenched into a solution of acetonitrile containing 50 ng/mL internal standard. The sample was analysed by a developed HPLC method that has been validated for lower limit of quantification, linearity, precision, selectivity and accuracy according to FDA guidance.
(§4) Half-life of NQC was calculated using the equation: T1/2=0.693/K.
(§5) The in vitro microsomal intrinsic clearance (CLint) was calculated based on the equation below: Clint=0.693/invitrot(1/2)×mlincubation/mgmicrosome×52.5mgmicrosome/gliver×[…].

RAW 264.7 cells [4] = assay: TNF-α production, ELISA, LPSEc stimulated cells; assay type: cell-based; details: Mus musculus, RAW264.7, LPSEc (1 µg/mL) stimulated RAW 264.7 cells
Method: as §1, §2

RAW 264.7 cells [5] = assay: Nitric oxide (nitrite) production, Griess reagent, LPSEc stimulated cells; assay type: cell-based; details: Mus musculus, RAW264.7; LPSEc (1 µg/mL) stimulated RAW 264.7 cells; 4 h pretreatment, 20 h LPS; read-out: IC50, NO production
Method: as §1
RAW 264.7 cells were seeded in a 96-well microplate at 3 × 10^5 cells/well with complete media. The cells were allowed grow and adhere for 24 h. The cells were treated with NQC (50, 25, 12.5, 6.25 and 3.125 µM) and negative control (0.1% v/v DMSO in water) for 4 h prior to LPSEc (1 µg/mL) and allowed to incubate for 20 h at 37 °C, 5% CO2 incubator. Nitrite exist as a stable metabolite of nitric oxide, thus nitrite present in the supernatant was quantitatively measured as a chemical marker of nitric oxide (NO) production using Griess reagent (Promega, USA; 0.1% naphthylethylenediamine dihydrochloride and 1% sulfanilamide in 2.5% phosphoric acid). This assay was carried out following the manufacturer’s protocol where 100 µL of cell supernatant sample was incubated with 100 µL of Griess reagent at room temperature for 10 min and the absorbance at 540 nm was measured using Molecular Devices Spectramax M3 Multi-Mode microplate reader. […]

RAW 264.7 cells [6] = assay: MTT cell viability assay; assay type: cell-based, mouse; details: for cytotoxic effects on RAW 264.7 cells (MTT): LPSEc stimulated
Method: as §1
A calorimetric agent (3-(4,5-Dimethylthiazol-2-yl)-2,5-Diphenyltetrazolium Bromide) (MTT) was used to as an assay to determine cell viability after being exposed to NQC. RAW 264.7 cells were seeded in a 96-well microplate at 3 × 10^5 cells/well and were allowed to grow and adhere for 24 h in a 37 °C, 5% CO2 incubator. NQC was dissolved in DMSO and diluted with PBS to produce the required test concentrations (100, 50, 25, 12.5, 6.25 and 3.125 µM). The negative control is 0.1% (v/v) DMSO, which is the maximum effective concentration of DMSO in a well. The cells were treated with either NQC or 0.1% (v/v) DMSO for 4 h followed by 1 µg/mL LPSEc and incubated further for 20 h. MTT solution was added at 100 µL per well under dark condition and the cells were incubated further for 4 h. Upon completion of incubation, the contents in all wells were aspirated and DMSO was added at 100 µL per well. The absorbance was measured at 570 nm using Molecular Devices Spectramax M3 Multi-Mode microplate reader; Sunnyvale, CA, USA. The cells without any treatment was used as a control. MTT assay was performed in triplicate. The percent cell viability is calculated using the following equation: PercentCellViabilty=AbsorbanceofVehicleorTD-1treatedgroupwell/AbsorbanceofControlwell×100.

RAW 264.7 cells [7] = assay: PGE2 production, ELISA, LPSEc stimulated cells; assay type: cell-based; details: Mus musculus, RAW264.7, LPSEc (1 µg/mL) stimulated RAW 264.7 cells
Method: as §1, §2

[8] = Microsomal metabolic stability, rat liver microsomes; assay type: in vitro ADME; details: NQC 1 µM
Method: as §3, §4, §5

[9] = Microsomal metabolic stability, human liver microsomes; assay type: in vitro ADME; details: NQC 1 µM
Method: as §3, §4, §5

T1 sequence (Q14145 whole entry): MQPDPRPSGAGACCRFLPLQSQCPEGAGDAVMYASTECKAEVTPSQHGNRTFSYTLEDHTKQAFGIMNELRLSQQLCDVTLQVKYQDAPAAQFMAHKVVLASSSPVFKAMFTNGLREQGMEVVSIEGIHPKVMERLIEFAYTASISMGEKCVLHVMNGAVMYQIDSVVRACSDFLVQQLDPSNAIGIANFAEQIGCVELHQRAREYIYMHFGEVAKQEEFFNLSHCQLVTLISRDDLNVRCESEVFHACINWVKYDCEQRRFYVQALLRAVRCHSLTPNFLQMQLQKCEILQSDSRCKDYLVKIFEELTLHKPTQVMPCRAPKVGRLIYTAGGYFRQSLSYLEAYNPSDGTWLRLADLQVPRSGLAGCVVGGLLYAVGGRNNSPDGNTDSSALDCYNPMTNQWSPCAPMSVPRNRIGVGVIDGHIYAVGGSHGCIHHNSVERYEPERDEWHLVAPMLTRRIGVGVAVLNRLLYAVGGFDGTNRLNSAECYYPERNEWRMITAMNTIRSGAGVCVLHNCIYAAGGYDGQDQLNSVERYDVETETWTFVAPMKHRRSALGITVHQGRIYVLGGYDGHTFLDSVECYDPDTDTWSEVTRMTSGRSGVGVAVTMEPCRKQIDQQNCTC

- IC50 (Nrf2-Keap1 interaction): 4.21 ± 0.89 µM
- IC50 (RAW 264.7 cells [1]): 13.3 ± 2.37 µM
- IC50 (RAW 264.7 cells [2]): 10.1 ± 0.58 µM
- Rate of metabolism ([3]; mouse liver microsomes): 0.028 min⁻¹
- microsomal intrinsic clearance (CLint) ([3]; mouse liver microsomes): 2.96 ± 0.34 mL/min/g liver
- mCint (microsomal intrinsic clearance) ([3]; mouse liver microsomes, Table 1): 2.96 ± 0.34 mL/min/g liver
- half-life at 1 µM ([3]; pH 7.4, mouse liver microsomes 0.5 mg/mL, NADPH, 37 °C): 24.6 ± 1.13 min
- IC50 (RAW 264.7 cells [4]): 14.4 ± 1.83 µM
- IC50 (RAW 264.7 cells [5]): 26.1 ± 1.17 µM
- IC50 (RAW 264.7 cells [7]): 15.2 ± 0.91 µM
- T1/2 ([8]; rat liver microsomes 0.5 mg/mL, NADPH, 37 °C): 52.23 ± 0.81 min
- Rate of metabolism ([8]; rat liver microsomes): 0.013 min⁻¹
- microsomal intrinsic clearance (CLint) ([8]; rat liver microsomes): 1.39 ± 0.87 mL/min/g liver
- mCint (microsomal intrinsic clearance) ([8]; rat liver microsomes, Table 1): 1.39 ± 0.87 mL/min/g liver
- half-life at 1 µM ([8]; rat, liver microsomes, pH 7.4, rat liver microsomes 0.5 mg/mL, NADPH, 37 °C): 52.3 ± 0.81 min
- Rate of metabolism ([9]; human liver microsomes): 0.011 min⁻¹
- microsomal intrinsic clearance (CLint) ([9]; human liver microsomes): 1.14 ± 0.31 mL/min/g liver
- mCint (microsomal intrinsic clearance) ([9]; human liver microsomes, Table 1): 1.14 ± 0.31 mL/min/g liver
- half-life at 1 µM ([9]; pH 7.4, human liver microsomes 0.5 mg/mL, NADPH, 37 °C): 63.3 ± 1.73 min
SMILES: O=C(NNC(=O)c1cnc2ccccc2n1)c1cccnc1 [NQC, N′-(Pyridine-3-carbonyl)quinoxaline-2-carbohydrazide]
- cytotoxic effects on RAW 264.7 cells (MTT) (RAW 264.7 cells [6]; 100 µM, P < 0.05): significant toxicity
- cytotoxic effects on RAW 264.7 cells (MTT) (RAW 264.7 cells [6]; 3.125–50 µM, P > 0.05): do not show cytotoxic effects
- toxicity on RAW 264.7 cells (RAW 264.7 cells [6]; dose of 50 µM): non-toxic
